Legend:
[1] = molecular target: T1, C-RAF (Homo sapiens, UniProt P04049, Y340E/Y341E); test: In vitro Raf activity determination (Alpha Screen, biotinylated kinase-dead MEK1 substrate), C-Raf; format: biochemical; settings: c-Raf approximately 4 nM; ATP 1 μM; pre-incubation 60 minutes; reaction 1 hour at room temperature
T1 construct: His tag (implied by nickel chromatography) (cleaved yes); StrepII tag (cleaved yes); made in house; host or cells: Sf9 insect cells (baculovirus), CRAF and h14-3-3 zeta co-expressed; MEK1 substrate from E. coli
T1 sequence (P04049 whole entry Y340E/Y341E): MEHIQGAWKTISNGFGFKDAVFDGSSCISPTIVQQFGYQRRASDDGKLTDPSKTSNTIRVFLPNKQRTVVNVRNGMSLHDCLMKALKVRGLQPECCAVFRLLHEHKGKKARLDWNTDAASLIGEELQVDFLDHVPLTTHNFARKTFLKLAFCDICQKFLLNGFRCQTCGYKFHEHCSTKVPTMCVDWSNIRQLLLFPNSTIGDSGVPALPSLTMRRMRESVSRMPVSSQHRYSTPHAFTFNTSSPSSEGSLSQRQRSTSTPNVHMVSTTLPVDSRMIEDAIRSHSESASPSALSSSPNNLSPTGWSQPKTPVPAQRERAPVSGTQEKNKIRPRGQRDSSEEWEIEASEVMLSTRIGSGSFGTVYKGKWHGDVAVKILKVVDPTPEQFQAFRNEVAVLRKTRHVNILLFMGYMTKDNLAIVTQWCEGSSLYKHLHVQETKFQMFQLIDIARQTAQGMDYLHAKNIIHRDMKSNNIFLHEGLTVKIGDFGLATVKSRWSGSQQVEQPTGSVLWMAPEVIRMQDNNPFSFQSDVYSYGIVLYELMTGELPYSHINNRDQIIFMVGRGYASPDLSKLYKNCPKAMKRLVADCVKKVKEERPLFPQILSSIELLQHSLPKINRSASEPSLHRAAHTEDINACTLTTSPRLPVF
T1 sequence (P63104 whole entry partner): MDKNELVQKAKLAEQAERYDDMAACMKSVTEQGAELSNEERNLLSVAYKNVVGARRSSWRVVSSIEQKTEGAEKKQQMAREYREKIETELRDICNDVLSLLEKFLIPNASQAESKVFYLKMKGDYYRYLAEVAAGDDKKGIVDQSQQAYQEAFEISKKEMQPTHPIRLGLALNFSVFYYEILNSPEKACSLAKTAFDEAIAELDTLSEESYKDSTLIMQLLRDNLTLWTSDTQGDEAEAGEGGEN
How it was run: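 AlphaScreen read-out of MEK phosphorylation using an anti-phospho-MEK1/2 antibody after a 1 hour room-temperature reaction at 1 μM ATP. Enzyme: approximately 4 nM Sf9-expressed full-length activated C-Raf (Y340E/Y341E, with 14-3-3ζ) on approximately 10 nM biotinylated K97R MEK1, after 60 min compound preincubation. IC50 by non-linear fit.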

[2] = molecular target: T2, b-Raf (V600E) (Homo sapiens, UniProt P15056, V600E); test: In vitro Raf activity determination (Alpha Screen, biotinylated kinase-dead MEK1 substrate), B-Raf; format: biochemical; settings: b-Raf (V600E) approximately 4 pM; ATP 10 μM; pre-incubation 60 minutes; reaction 3 hours at room temperature
T2 construct: made in house
T2 sequence (P15056 whole entry V600E): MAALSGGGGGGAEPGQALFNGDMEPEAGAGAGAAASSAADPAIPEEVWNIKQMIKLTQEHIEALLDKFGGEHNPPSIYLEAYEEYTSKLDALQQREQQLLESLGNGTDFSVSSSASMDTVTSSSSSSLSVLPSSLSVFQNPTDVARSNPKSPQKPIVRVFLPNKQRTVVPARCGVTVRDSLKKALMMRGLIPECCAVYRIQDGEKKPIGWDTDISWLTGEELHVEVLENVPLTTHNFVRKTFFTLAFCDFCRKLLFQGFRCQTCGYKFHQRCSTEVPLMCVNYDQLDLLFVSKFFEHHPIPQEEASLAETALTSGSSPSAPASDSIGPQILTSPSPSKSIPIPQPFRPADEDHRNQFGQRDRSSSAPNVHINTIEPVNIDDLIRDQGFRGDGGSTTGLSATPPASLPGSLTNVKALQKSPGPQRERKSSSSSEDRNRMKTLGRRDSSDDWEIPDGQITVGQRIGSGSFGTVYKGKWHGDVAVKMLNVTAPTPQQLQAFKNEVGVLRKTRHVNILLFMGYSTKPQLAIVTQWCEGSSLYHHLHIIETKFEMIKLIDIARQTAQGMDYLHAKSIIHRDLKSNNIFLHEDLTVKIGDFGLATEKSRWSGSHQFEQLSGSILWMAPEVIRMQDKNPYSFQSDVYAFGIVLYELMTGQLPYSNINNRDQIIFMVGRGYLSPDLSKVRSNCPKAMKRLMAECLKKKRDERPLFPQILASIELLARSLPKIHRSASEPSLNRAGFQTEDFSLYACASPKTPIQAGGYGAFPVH
How it was run: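 IC50 from non-linear regression of AlphaScreen phospho-MEK signal (anti-p-MEK1/2 antibody). b-Raf(V600E), about 4 pM, phosphorylated ~10 nM biotinylated K97R MEK1 with 10 μM ATP for 3 h at room temperature after 60 min compound pre-incubation; buffer pH 7.5 Tris, 15 mM MgCl2, 1 mM DTT.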

| SMILES | IC50 [1] [nM] | IC50 [2] [nM] |
| --- | --- | --- |
| Cc1ccc(NC(=O)c2ccnc(C3(C#N)CC3)c2)cc1-c1cnc(N2CC(C)(O)C2)c(C#N)c1 [Example 220, N-(3-(5-cyano-6-(3-hydroxy-3-methylazetidin-1-yl)pyridin-3-yl)-4-methylphenyl)-2-(1-cyanocyclopropyl) isonicotinamide] | 0.183 | 0.939 |
| CCn1cc(C(=O)Nc2ccc(C)c(-c3cnc(N4CC(C)(O)C4)c(C#N)c3)c2)cc(C(F)(F)F)c1=O [Example 221, N-(3-(5-cyano-6-(3-hydroxy-3-methylazetidin-1-yl)pyridin-yl)-4-methylphenyl)-1-ethyl-6-oxo-5-(trifluoromethyl)-1,6-dihydropyridine-3-carboxamide] | 0.591 | 3.65 |
| Cc1ccc(NC(=O)c2cc(C(F)(F)F)ccn2)cc1-c1cnc(N2CCOCC2)c(C#N)c1 [Example 222, N-(3-(5-cyano-6-morpholinopyridin-3-yl)-4-methylphenyl)-4-(trifluoromethyl) picolinamide] | 0.219 | 1 |
| Cc1ncc(NC(=O)c2cc(C(F)(F)F)ccn2)cc1-c1cnc(N2CCOCC2)c(C#N)c1 [Example 223, N-(5′-cyano-2-methyl-6′-morpholino-[3,3′-bipyridin]-5-yl)-4-(trifluoromethyl) picolinamide] | 0.304 | 1 |
| Cc1ccc(NC(=O)c2cc(C(F)(F)F)ccn2)cc1-c1cnc(N2CC(C)(O)C2)c(C#N)c1 [Example 224, N-(3-(5-cyano-6-(3-hydroxy-3-methylazetidin-1-yl)pyridin-3-yl)-4-methylphenyl)-4-(trifluoromethyl) picolinamide] | 0.49 | 2 |
| Cc1ncc(NC(=O)c2cc(C(F)(F)F)ccn2)cc1-c1cnc(N2CC(C)(O)C2)c(C#N)c1 [Example 225, N-(5′-cyano-6′-(3-hydroxy-3-methylazetidin-1-yl)-2-methyl-[3,3′-bipyridin]-5-yl)-4-(trifluoromethyl) picolinamide] | 1.08 | 5 |
| Cc1ccc(NC(=O)c2cc(C(F)(F)F)ccn2)cc1-c1cnc(NC2CCOCC2)c(C#N)c1 [Example 226, N-(3-(5-cyano-6-((tetrahydro-2H-pyran-4-yl)amino)pyridin-3-yl)-4-methylphenyl)-4-(trifluoromethyl) picolinamide] | 0.695 | 2 |
| Cc1ncc(NC(=O)c2cc(C(F)(F)F)ccn2)cc1-c1cnc(NC2CCOCC2)c(C#N)c1 [Example 227, N-(5′-cyano-2-methyl-6′-((tetrahydro-2H-pyran-4-yl)amino)-[3,3′-bipyridin]-5-yl)-4-(trifluoromethyl) picolinamide] | 0.796 | 3 |
| COCCNc1ncc(-c2cc(NC(=O)c3cc(C(F)(F)F)ccn3)ccc2C)cc1C#N [Example 228, N-(3-(5-cyano-6-((2-methoxyethyl)amino)pyridin-3-yl)-4-methylphenyl)-4-(trifluoromethyl) picolinamide] | 0.409 | 2 |
| COCCNc1ncc(-c2cc(NC(=O)c3cc(C(F)(F)F)ccn3)cnc2C)cc1C#N [Example 229, N-(5′-cyano-6′-((2-methoxyethyl)amino)-2-methyl-[3,3′-bipyridin]-5-yl)-4-(trifluoromethyl) picolinamide] | 1.37 | 5 |
| Cc1ncc(NC(=O)c2cc(C(C)(C)C#N)ccn2)cc1-c1cnc(N2CCOCC2)c(C#N)c1 [Example 230, N-(5′-cyano-2-methyl-6′-morpholino-[3,3′-bipyridin]-5-yl)-4-(2-cyanopropan-2-yl)picolinamide] | 0.384 | 2.62 |
| Cc1ncc(NC(=O)c2cc(C(C)(C)C#N)ccn2)cc1-c1cnc(N2CC(C)(O)C2)c(C#N)c1 [Example 231, N-(5′-cyano-6′-(3-hydroxy-3-methylazetidin-1-yl)-2-methyl-[3,3′-bipyridin]-5-yl)-4-(2-cyanopropan-2-yl)picolinamide] | 1.96 | 15.8 |
